Values after ≈ are worked out from the molar mass of the structure shown. Where two headings read alike, the source gives them in different places. Each block holds one compound with its values, some of them ahead of it. Starred links: 1 amine or outer side, 2 acyl side, 3 side chain; linkers in the order of their positions; H or OH if unused. Positions of bridges follow the written chain, without caps; N, C: chain ends. Non-standard residues stand in square brackets, D forms with d. Residues, ends and D or L forms follow the SMILES beside them. *: point of attachment. Orn(4R-OH,5R-OH) = O=C([C@H](C[C@@H](O)[C@@H](O)N[*:3])N[*:1])[*:2]; hTyr(3S-OH,4S-OH) = N[C@H](C(=O)O)[C@H](O)[C@@H](O)c1ccc(O)cc1; Pro(3S-OH,4S-Me) = C[C@H]1CN[C@H](C(=O)O)[C@H]1O; Benzoyl(4-octyloxy) = CCCCCCCCOc1ccc(C(=O)*)cc1; Gln(3R-OH) = NC(=O)C[C@@H](O)[C@H](N)C(=O)O; Hyp = O=C(O)[C@@H]1C[C@@H](O)CN1; Tridecanoyl = CCCCCCCCCCCCC(=O)*; Myristoyl = CCCCCCCCCCCCCC(=O)*; Lauroyl = CCCCCCCCCCCC(=O)*; 4Abz = Nc1ccc(C(=O)O)cc1
Key:
Candida albicans [1] = details: characteristics from German Offenlegungschrift 2,628,965 / U.S. Patent 4,173,629; cited from earlier work
physchem = details: 66% aqueous dimethylformamide, pH 7.32
Neurospora crassa 846 = assay: Agar-plate disc-diffusion test (zone of inhibition); format: cell-based; details: methanol suspension 1 mg/ml, 7-mm disc, 24—48 hours at 25—37°C, * = distinct zone with regrowth of organism around disc
Experimental: (§1) In Table IV activity is measured by the size (diameter in mm) of the observed zone of inhibition of the microorganism produced by the test compound. In Table V activity is measured by the minimal inhibitory concentration (MIC) of the substance (mg/disc) required to inhibit growth of the test organism. Table VI gives the results of the testing in vitro of the p-(n-octyloxy)benzoyl derivative of A-30912A nucleus against five strains of Candida albicans by the agar-dilution method. In Table VI activity is measured by the minimal inhibitory concentration (MIC) of the substance (mg/ml) required to inhibit the test organism.

[2] = test system: Saccharomyces pastorianus X—52; assay: as above; format: cell-based; details: methanol suspension 1 mg/ml, 7-mm disc, incubation 24—48 hours at 25—37°C
Experimental: as §1

[3] = test system: Trichophyton mentagrophytes A—23; assay: as above; format: cell-based; details: read-out: Size of Zone of Inhibition (mm)
Experimental: as §1

Candida albicans A-26 = assay: Therapeutic activity against systemic C. albicans infection in mice; format: in vivo
Experimental: The results of in vivo tests to evaluate the effectiveness of the derivatives against an infection caused by Candida albicans A-26 in mice are given in Table VII. In these tests activity is measured by the ED50 value (the dose in mg/kg required to cure 50% of the test animals). Where an ED50 value was not obtained, activity is indicated by the lowest dose at which a significant antifungal effect is observed. In these tests, groups of male albino mice (specific pathogen free), weighing 18 to 20 grams, are infected intravenously with Candida albicans A-26. The animals are X-irradiated 24 hours prior to infection at about 50 roentgens per minute for 8 minutes (400 total dose) to reduce immune responses to the infecting organism. At 0, 4, and 24 hours post infection each group of mice is given graded doses subcutaneously of the test compound as a suspension in 33% polyethylene glycol(PEG)-water. The day of death for each animal is recorded.

in vivo = details: mouse, po, 416 mg/kg
Experimental: (§2) At time intervals, blood samples are taken from the orbital sinus and are assayed for antibiotic activity as follows: A 7-mm disc containing 20 ml of whole blood is placed on agar seeded with Aspergillus montevidensis A35137. After 40 hours incubation at 30°C, zones of inhibition from the blood samples are compared to a standard obtained from the test compound, and the amount of compound in the blood sample is calculated.

[4] = Blood levels after oral administration in mice (bioassay vs. Aspergillus montevidensis); details: mouse, 416 mg/kg
Experimental: as §2

Candida albicans [5] = assay: Agar-dilution MIC against five Candida albicans strains; format: cell-based; details: agar-dilution method
Experimental: as §1

[6] = Neurospora crassa 846, read-out: Size of Zone of Inhibition (mm)
[7] = Saccharomyces pastorianus X—52, read-out: Size of Zone of Inhibition (mm)
[8] = Candida albicans, A26, light or radiation study, sc, X-irradiated mice infected i.v. with C. albicans A-26, subcutaneous doses at 0, 4 and 24 hours, lowest dose with significant antifungal effect (survival time), read-out: Lowest Active Dose
[9] = Candida albicans, A26, light or radiation study, sc, X-irradiated mice infected i.v. with C. albicans A-26, subcutaneous doses at 0, 4 and 24 hours post infection, suspension in PEG-water, dose curing 50% of animals, read-out: ED50

SMILES: CCCCCCCCCCCCCC(=O)N[C@H]1C[C@@H](O)[C@@H](O)NC(=O)[C@@H]2[C@@H](O)[C@@H](C)CN2C(=O)[C@H]([C@H](O)CC(N)=O)NC(=O)[C@H]([C@H](O)[C@@H](O)c2ccc(O)cc2)NC(=O)[C@@H]2C[C@@H](O)CN2C(=O)[C@H]([C@@H](C)O)NC1=O [S 31794/F-1] (Myristoyl-[Orn(4R-OH,5R-OH)]T[Hyp][hTyr(3S-OH,4S-OH)][Gln(3R-OH)][Pro(3S-OH,4S-Me)]; lactam 1-C)
- antifungal activity (Candida albicans [1]): has antifungal activity, especially against Candida albicans

SMILES: C[C@@H](O)[C@@H]1NC(=O)[C@H]([C@H](O)[C@@H](O)c2ccc(O)cc2)NC(=O)[C@@H]2C[C@@H](O)CN2C(=O)[C@H]([C@@H](C)O)NC(=O)[C@@H](N)C[C@@H](O)[C@@H](O)NC(=O)[C@@H]2[C@@H](O)[C@@H](C)CN2C1=O [A-30912A nucleus] (H-[Orn(4R-OH,5R-OH)]T[Hyp][hTyr(3S-OH,4S-OH)]T[Pro(3S-OH,4S-Me)]; lactam 1-C)
- pKa (physchem): ~7.35

SMILES: CCCCCCCCCCCC(=O)Nc1ccc(C(=O)N[C@H]2C[C@@H](O)[C@@H](O)NC(=O)[C@@H]3[C@@H](O)[C@@H](C)CN3C(=O)[C@H]([C@@H](C)O)NC(=O)[C@H]([C@H](O)[C@@H](O)c3ccc(O)cc3)NC(=O)[C@@H]3C[C@@H](O)CN3C(=O)[C@H]([C@@H](C)O)NC2=O)cc1 [Reference Example 7, N-(n-dodecanoyl)-p-aminobenzoyl derivative of A-30912A nucleus] ({Lauroyl-4Abz}-[Orn(4R-OH,5R-OH)]T[Hyp][hTyr(3S-OH,4S-OH)]T[Pro(3S-OH,4S-Me)]; lactam 1-C)
- zone of inhibition at 1000 µg/mL (Neurospora crassa 846; Neurospora crassa, 846, 48 h, read-out: Size of Zone of Inhibition (mm), Neurospora crassa 846): 33 mm
- zone of inhibition at 1000 µg/mL ([2]; Saccharomyces pastorianus, 48 h, read-out: Size of Zone of Inhibition (mm), Saccharomyces pastorianus X—52): 21 mm
- zone of inhibition at 1000 µg/mL ([3]; Trichophyton mentagrophytes, 48 h): 55 mm
- ED50 (Candida albicans A-26; Candida albicans, A26, light or radiation study, sc): 15 mg/kg
- minimal effective dose (Candida albicans A-26; Candida albicans, A26, light or radiation study, sc, read-out: Lowest Active Dose (mg/kg), X-irradiated mice infected i.v. with C. albicans A-26, subcutaneous doses at 0, 4 and 24 hours, lowest dose with significant antifungal effect (survival time)): 10 mg/kg
- concentration at 4 h [4]: 830 µg/mL

More lines, main results first:

- concentration at 4 h (in vivo): 100 µg/mL
SMILES: CCCCCCCCCCCCC(=O)N[C@H]1C[C@@H](O)[C@@H](O)NC(=O)[C@@H]2[C@@H](O)[C@@H](C)CN2C(=O)[C@H]([C@@H](C)O)NC(=O)[C@H]([C@H](O)[C@@H](O)c2ccc(O)cc2)NC(=O)[C@@H]2C[C@@H](O)CN2C(=O)[C@H]([C@@H](C)O)NC1=O [Reference Example 1] (Tridecanoyl-[Orn(4R-OH,5R-OH)]T[Hyp][hTyr(3S-OH,4S-OH)]T[Pro(3S-OH,4S-Me)]; lactam 1-C)
- zone of inhibition at 1000 µg/mL (Neurospora crassa 846; [6]): 32 mm
- zone of inhibition at 1000 µg/mL [2, 7]: 21 mm
- zone of inhibition at 1000 µg/mL ([3]; Trichophyton mentagrophytes A—23, methanol suspension 1 mg/ml, 7-mm disc, 24—48 hours at 25—37°C, * = distinct zone with regrowth of organism around disc): 60 mm
- minimal effective dose (Candida albicans A-26; [8]): 20 mg/kg
- ED50 (Candida albicans A-26; [9]): 34 mg/kg

- MIC (Candida albicans [5]; Candida albicans strain A26, read-out: MIC): 0.312 µg/mL (≈ 0.303 µM)
- MIC (Candida albicans [5]; Candida albicans strain SBH 16): 0.312 µg/mL (≈ 0.303 µM)
- MIC (Candida albicans [5]; Candida albicans strain SBH 28): 0.312 µg/mL (≈ 0.303 µM)
- MIC (Candida albicans [5]; Candida albicans strain SBH 29): 0.312 µg/mL (≈ 0.303 µM)
- MIC (Candida albicans [5]; Candida albicans strain SBH 31): 0.312 µg/mL (≈ 0.303 µM)
- concentration at 4 h [4]: 23000 µg/mL
SMILES: CCCCCCCCOc1ccc(C(=O)N[C@H]2C[C@@H](O)[C@@H](O)NC(=O)[C@@H]3[C@@H](O)[C@@H](C)CN3C(=O)[C@H]([C@@H](C)O)NC(=O)[C@H]([C@H](O)[C@@H](O)c3ccc(O)cc3)NC(=O)[C@@H]3C[C@@H](O)CN3C(=O)[C@H]([C@@H](C)O)NC2=O)cc1 [Reference Example 13, p-(n-octyloxy)benzoyl derivative of A-30912A nucleus] ({Benzoyl(4-octyloxy)}-[Orn(4R-OH,5R-OH)]T[Hyp][hTyr(3S-OH,4S-OH)]T[Pro(3S-OH,4S-Me)]; lactam 1-C)
- zone of inhibition at 1000 µg/mL (Neurospora crassa 846; [6]): 23 mm
- zone of inhibition at 1000 µg/mL [2, 7]: 18 mm
- minimal effective dose (Candida albicans A-26; [8]): 10 mg/kg
- ED50 (Candida albicans A-26; [9]): 13 mg/kg
- ED50 (Candida albicans A-26; X-irradiated mice infected i.v. with C. albicans A-26, subcutaneous doses at 0, 4 and 24 hours post infection, suspension in PEG-water, dose curing 50% of animals): 22.2 mg/kg
- Lowest Active Dose (Candida albicans A-26; X-irradiated mice infected i.v. with C. albicans A-26, subcutaneous doses at 0, 4 and 24 hours, lowest dose with significant antifungal effect (survival time)): >12.5 mg/kg

Source: EP0031221B1, “Cyclic peptide nuclei” (ELI LILLY AND COMPANY, priority 1979, dated 1981)
